Results reported in patent publication US20170014354A1, “ZEAXANTHIN FOR TUMOR TREATMENT” (The New York Eye and Ear Infirmary, priority 2012, published 2017).

Columns and labels:
MCF-7 = assay: MTT cell viability, MCF-7 breast cancer; type: cell-based; conditions: for Cell viability: 48 h, MTT, vs control
Experimental: (§1) Each malignant tumor cell line was cultured in Dulbecco's modified Eagle's medium (DMEM, GIBCO, Carlsbad, Calif.) supplemented with 10% fetal bovine serum (FBS, GIBCO). Cells were incubated in a humidified 5% CO2 atmosphere at 37° C. After reaching confluence, cells were detached by trypsin-EDTA solution (GIBCO), diluted 1:4-1:6, plated for subculture and were passaged routinely at a dilution of 1:4-1:6 every 4-6 days.
(§2) All cell lines were tested in triplicates.

M17 = assay: MTT cell viability, M17 uveal melanoma; type: cell-based, human; conditions: 48 h, vs control
Experimental: as §1, §2

SP6.5 = assay: MTT cell viability, SP6.5 uveal melanoma; type: cell-based; conditions: vs control; for Cell viability: 48 h, MTT; for reduction of cell viabilities: FIG. 1B
Experimental: as §1, §2

BC-1 = assay: MTT cell viability, BC-1 lymphoma; type: cell-based; conditions: for Cell viability: 48 h, MTT, vs control
Experimental: as §1, §2

NCI-H358 = assay: MTT cell viability, NCI-H358 lung cancer; type: cell-based; conditions: 48 h, vs control
Experimental: as §1, §2

HCT116 = assay: MTT cell viability, HCT116 colon cancer; type: cell-based; conditions: 48 h, vs control
Experimental: as §1, §2

COLO829 = assay: MTT cell viability, COLO829 cutaneous melanoma; type: cell-based; conditions: 48 h, vs control
Experimental: as §1, §2

[1] = tested on: uveal melanoma cells (SP6.5); assay: Annexin V-FITC staining apoptosis analysis; type: cell-based
Experimental: FIG. 3 illustrates the fluorescence photomicrograph of pro-apoptotic effects of zeaxanthin on uveal melanoma cells after annexin V-FTIC staining. Melanoma cells (SP6.5 cell line) were treated by zeaxanthin at a concentration of 100 μM for 24 hr, and the extent of apoptosis was determined by annexin V-FTIC staining. Cells were observed under fluorescence microscope using 492 nm and 530 nm filters for recognizing and detecting FITC.
In these tests, we measured the extent of apoptosis of cells treated with zeaxanthin by annexin V-FITC staining analysis. Specifically, uveal melanoma cells (SP6.5) were plated into 8-well plates at a density of 6×10^4 cells/well. After culturing for 24 hours, cells were treated with zeaxanthin at final concentration of 10, 30, and 100 μM for another 24 hours in a CO2 incubator at 37C. Then the culture medium was aspirated and the cells were washed with the binding buffer in preparation for annexin V-FITC staining analysis. FITC-annexin V was added into each well and the cells were stained for 15 min in the dark, followed by washing with the binding buffer. The cells were then observed under fluorescence microscope using 492 nm and 530 nm filters that facilitate FITC fluorescence detection to measure the extent of apoptosis based on the principle that cell membranes of apoptotic cells were stained bright green in color.

Structure (SMILES): CC1=C(/C=C/C(C)=C/C=C/C(C)=C/C=C/C=C(C)/C=C/C=C(C)/C=C/C2=C(C)C[C@@H](O)CC2(C)C)C(C)(C)C[C@H](O)C1 [zeaxanthin]
- Cell viability (MCF-7; MCF-7, 10 μM zeaxanthin): 86 ± 4.0%
- Cell viability (MCF-7; MCF-7, 30 μM zeaxanthin): 73 ± 8.3%
- Cell viability (MCF-7; MCF-7, 100 μM zeaxanthin): 52 ± 2.4%
- final concentration at which cell viability decreased significantly (MCF-7; MCF-7, vs cells without zeaxanthin): ≥ 30 µM
- Cell viability (M17; M17, 10 μM zeaxanthin): 84 ± 3.9%
- Cell viability (M17; M17, 30 μM zeaxanthin): 69 ± 2.5%
- Cell viability (M17; M17, 100 μM zeaxanthin): 41 ± 1.0%
- Cell viability (SP6.5; SP6.5, 10 μM zeaxanthin): 86 ± 4.3%
- reduction of cell viabilities (SP6.5; SP6.5, 10 μM zeaxanthin): about 14%
- Cell viability (SP6.5; SP6.5, 30 μM zeaxanthin): 64 ± 1.7%
- reduction of cell viabilities (SP6.5; SP6.5, 30 μM zeaxanthin): ~36%
- Cell viability (SP6.5; SP6.5, 100 μM zeaxanthin): 42 ± 2.2%
- reduction of cell viabilities (SP6.5; SP6.5, 100 μM zeaxanthin): ~58%
- Cell viability (BC-1; BC-1, 10 μM zeaxanthin): 79 ± 8.2%
- Cell viability (BC-1; BC-1, 30 μM zeaxanthin): 67 ± 11%
- Cell viability (BC-1; BC-1, 100 μM zeaxanthin): 69 ± 7.1%
- final concentration at which cell viability decreased significantly (BC-1; BC-1, vs cells without zeaxanthin): ≥ 30 µM
- Cell viability (NCI-H358; NCI-H358, 10 μM zeaxanthin): 80 ± 3.5%
- Cell viability (NCI-H358; NCI-H358, 30 μM zeaxanthin): 65 ± 3.0%
- Cell viability (NCI-H358; NCI-H358, 100 μM zeaxanthin): 37 ± 1.3%
- Cell viability (HCT116; HCT116, 10 μM zeaxanthin): 67 ± 3.7%
- Cell viability (HCT116; HCT116, 30 μM zeaxanthin): 56 ± 2.3%
- Cell viability (HCT116; HCT116, 100 μM zeaxanthin): 16 ± 1.4%
- Cell viability (COLO829; COLO829, 10 μM zeaxanthin): 73 ± 4.6%
- Cell viability (COLO829; COLO829, 30 μM zeaxanthin): 52 ± 2.0%
- Cell viability (COLO829; COLO829, 100 μM zeaxanthin): 28 ± 1.2%
- annexin V staining of the cell membrane (apoptotic cells) ([1]; SP6.5, 100 μM zeaxanthin, 24 hr, FIG. 3): numerous cells showed staining of the cell membrane with annexin V
- extent of apoptosis (annexin V-FITC staining) ([1]; SP6.5, 10, 30 and 100 μM zeaxanthin, 24 hours): apoptosis in uveal melanoma cells induced by zeaxanthin in a dose-dependent manner
